One series has as its system OVX C57BL/6J female mice. The series is described as follows: Ovariectomy (OVX)-induced osteoporosis and obesity in mice, dosing in drinking water over two months. In kind it is in vivo, mouse. From the text: Aging-related bone loss and osteoporosis frequently occur in women after menopause. To mimic the pathogenesis of osteoporotic bone loss, we performed ovariectomy (OVX) on female mice to induce estrogen deficiency. […] Mice weight on average 20 g at the start of the experiment. […] Dosing was over two months.
(§1) For the mice on high fat diets, the starting animal weights were about 25 grams.
We monitored mouse body weight, food and water consumption on a weekly basis for two months. Nuclear magnetic resonance scanner was used to assess lean mass and fat mass composition. Serum chemistries were analyzed in UCLA DLAM facility. Liver and adipose tissues were harvested for histology and histomorphometric analyses. Femur, tibia and mandible were subjected to micro-CT scanning and reconstruction. […] One-way ANOVA was performed to quantify differences among all the groups.

The next series deals with HFD-fed mice. Put plainly: High fat diet (HFD)-induced obesity and bone loss in mice, dosing in drinking water for three months. In kind it is in vivo, mouse.
Excerpt: as §1
Mice were given a regular diet or high fat diet (HFD) for three months beginning at age of 8 weeks. […] Body weight, food and water consumption were monitored on a weekly basis for three months. Nuclear magnetic resonance scanner was used to assess lean mass and fat mass composition. Liver and adipose tissues were harvested for histology and histomorphometric analyses. Femur, tibia and mandible were subjected to micro-CT scanning and reconstruction. […] One-way ANOVA was performed to quantify differences among all the groups.

A further series concerns aged C57BL/6J male mice. Put plainly: Bone and adipose metabolism in aged mice, dosing in drinking water from 18 months of age for six months. In kind it is in vivo, mouse. The note with it: for body weight: after six months treatment. As for the experimental part:
as §1
Mice weighed 40 g on average at the start of the study. Body weight, food and water consumption were monitored on a weekly basis. Nuclear magnetic resonance scanner was used to assess lean mass and fat mass composition. Liver and adipose tissues were harvested for histology and histomorphometric analyses. Femur, tibia and mandible were subjected to μCT scanning and reconstruction. […] One-way ANOVA was performed to quantify differences among all the groups.

The next series in a line: Solubility in water. In kind it is physicochemical.
The nature of series [1]: Stability of water solutions. In kind it is physicochemical. The note with it: water solution.
[2] abbreviates: 100 mg/kg/day alone, compared with 500 mg/kg/day and combination groups.

“Also recorded” adds a separate entry of the source.

Consider `NC(=O)c1ccc[n+]([C@@H]2O[C@H](COP(=O)([O-])O)[C@@H](O)[C@H]2O)c1` [NMN, 3-carbamoyl-1-[5-O-(hydroxyphosphinato)-β-D-ribofuranosyl]pyridinium], for which the “weight and size of liver” value in the series on OVX C57BL/6J female mice (100 mg/kg/day alone, OVX mice) was “did not significantly affect”; in the series on aged C57BL/6J male mice (setting [2]) it was “significantly higher”; in the series on aged C57BL/6J male mice (500 mg/kg/day alone, comparison is worded from the side of control and 100 mg/kg/day groups), “significantly higher in control, 100 mg/kg/day α-KG, and 100 mg/kg/day NMN groups compared with”. Besides, the “OVX-induced body weight gain” value in the series on OVX C57BL/6J female mice (100 mg/kg/day alone, drinking water, two months) is “ineffective; also recorded: did not significantly inhibit”. Moreover, the “OVX-induced mouse body weight gain” value in the series with OVX C57BL/6J female mice (500 mg/kg/day alone, drinking water, two months) is “significantly inhibited”. Also, the “fat mass (nuclear magnetic resonance)” value in the series on HFD-fed mice (100 mg/kg/day alone, HFD) is given as “could not affect”. Also, the “weight gains induced by HFD” value in the series with HFD-fed mice (low concentration (100 mg/kg/day) alone, three months) is “did not significantly reduce”. In addition, the “pgWAT weight gain induced by HFD” value with HFD-fed mice (low concentration alone) was “did not significantly inhibit”. For the same compound, the body weight result in the series on aged C57BL/6J male mice (100 mg/kg/day alone, compared with control) is “increased at a similar rate”; with aged C57BL/6J male mice (500 mg/kg/day alone), “decreased significantly”. In the series on aged C57BL/6J male mice (setting [2]), the “fat mass and lean mass (nuclear magnetic resonance)” value is “significantly higher fat mass and lower lean mass”. Moreover, the “weight of pgWAT” value with aged C57BL/6J male mice (setting [2]) was “significantly higher”. Besides, in the series “Solubility in water”, the solubility in water entry is “dissolve well in water”. Besides, the “stability of the water solutions” value in series [1] is “highly stable”.

In the case of alpha-ketoglutarate [α-KG], the “stability of the water solutions” value in series [1] is recorded as “highly stable”.

Source of the values: US20250281518A1, “METHODS AND AGENTS FOR PREVENTING SKELETAL AGING, OSTEOPOROSIS AND OBESITY” (The Regents of the University of California, priority 2022, published 2025).
